Laboratory results taken from ChEMBL document CHEMBL3879913, “NMDA receptor modulators and uses related thereto” (2014).

Biological target: Glutamate NMDA receptor; Grin1/Grin2c (Rattus norvegicus) (UniProt P35439+Q00961)
Test: Modulation of recombinant rat GluN1/GluN2C expressed in Xenopus laevis oocytes assessed as potentiation of glycine/glutamate-induced current by measuring receptor response at 100 uM by two-electrode voltage-clamp method relative to control
Format: cell-based

COC(=O)c1ccc(C2C(C(=O)c3ccncc3)=C(O)C(=O)N2CCc2c[nH]cn2)cc1 (configuration not stated)
Activity: 84%

COC(=O)c1ccc(C2C(C(=O)c3ccncc3)=C(O)C(=O)N2CCc2ccncc2)cc1 (configuration not stated)
Activity: 97%
